Test results reported in US11773127B2, “Compounds and methods for treating bacterial infections” (Washington University, priority 2017, dated 2023).
Like-named read-outs stand apart in the source and are kept apart here.

Molecular target: T1, FmlHLD (Escherichia coli, UniProt P77588)
T1 construct: 6xHis (C); made in house; host or cells: E. coli C600, periplasm, pTRC99a
Experiment: biochemical
Type: binding, E. coli
Conditions: for PI100 (percent inhibition): galactoside at 100 μM, 100 µM; for inhibition of FmlHLD binding to ds-BSM, in words: soluble compound at 100 μM (0.1 mM); for inhibitory potency against FmlH, in words: ELISA-based competition assay; for % Inhibition at [μM] [100]: compound at 100 μM
How it was run: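 Sialidase-treated bovine submaxillary mucin (ds-BSM) coated wells, BSA-blocked, then biotinylated FmlH^LD (20 μg/mL) with or without compound for 1 h at room temperature. Bound lectin detected by streptavidin-HRP/TMB, A450.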

[1] = read-out: % Inhibition at [μM] [1], compound at 1 μM, inhibition of FmlHLD binding to ds-BSM
[2] = read-out: % Inhibition at [μM] [10], compound at 10 μM, inhibition of FmlHLD binding to ds-BSM
[3] = read-out: % Inhibition at [μM] [100], compound at 100 μM, inhibition of FmlHLD binding to ds-BSM
[4] = IC50, inhibition of FmlHLD binding to ds-BSM
[5] = mean with standard error of the mean
[6] = read-out: PI100 (percent inhibition), galactoside at 100 μM, mean with standard error of the mean
[7] = IC50 (μM), Table 5, Gal and GalNAc inhibition of FmlH
[8] = read-out: PI(1) (average percent inhibition), compound at 1 μM, Table 4
[9] = read-out: % Inhibition at [μM] [0.1], compound at 0.1 μM (100 nM), inhibition of FmlHLD binding to ds-BSM
[10] = read-out: PI (0.1) (average percent inhibition), compound at 100 nM, Table 4
[11] = read-out: PI10 (percent inhibition), galactoside at 10 μM, mean with standard error of the mean
[12] = inhibition of FmlHLD binding to ds-BSM

T1 sequence (P77588 25-182): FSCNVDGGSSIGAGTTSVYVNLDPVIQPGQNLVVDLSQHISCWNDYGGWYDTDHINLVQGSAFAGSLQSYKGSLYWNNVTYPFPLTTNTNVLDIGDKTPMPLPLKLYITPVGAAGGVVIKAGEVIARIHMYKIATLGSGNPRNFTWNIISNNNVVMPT

With `Cc1ccc(O[C@@H]2O[C@H](CO)[C@H](O)[C@H](O)[C@H]2O)cc1` [Compound 153a] the inhibition at 1 µM [1] was 4.59%, the inhibition at 10 µM [2] was 16.5% and the inhibition at 100 µM [3] was 85.8%.
Compound `CC(=O)N[C@H]1[C@H](Oc2cccc(C)c2-c2cccc(NS(=O)(=O)N(C)C)c2)O[C@H](CO)[C@H](O)[C@@H]1O` [AM2152] has an IC50 [4] of 0.13 µM.
With `OC[C@H]1O[C@@H](Oc2cccc3ccncc23)[C@H](O)[C@@H](O)[C@H]1O` [Compound 21β, 8-isoquinolinyl β-D-galactopyranoside] the “PI100 (percent inhibition)” value [5] was 15.2 ± 7.1% and the inhibition at 100 µM [6] was 15%.
Compound `N#Cc1ccccc1O[C@H]1O[C@H](CO)[C@H](O)[C@H](O)[C@H]1O` [Compound 137a] has an inhibition at 100 µM [3] of 17.8%.
In the case of `CC(C)S[C@@H]1O[C@H](CO)[C@H](O)[C@H](O)[C@H]1O` [IPTG, isopropyl β-thiogalactoside, reference compound], the inhibition at 100 µM [3] is reported as 23.7% and the “inhibition of FmlHLD binding to ds-BSM, in words” value is reported as “minor inhibitory activity”.
With `CC(=O)N[C@H]1[C@H](Oc2ccccc2-c2cccc(C(N)=O)c2)O[C@H](CO)[C@H](O)[C@@H]1O` [AM2033, 2′-(((2S,3R,4R,5R,6R)-3-acetamido-4,5-dihydroxy-6-(hydroxymethyl)tetrahydro-2H-pyran-2-yl)oxy)-[1,1′-biphenyl]-3-carboxamide] the “inhibitory potency against FmlH, in words” value (from here on “inhibitory potency”) was “equal or slightly reduced potency”, the IC50 [7] was 1.65 µM and the inhibition at 1 µM [1] was 3.52%. The inhibition at 1 µM [8] was 3.52%.
Work on `CC1=CC(=O)Cc2c1cc(F)c(O[C@@H]1O[C@H](CO)[C@H](O)[C@H](O)[C@H]1O)c2F` [DiF-MUG, reference compound] yielded an inhibition at 10 µM [2] of 0.85% and an inhibition at 100 µM [3] of 49.7%.
Work on `OC[C@H]1O[C@@H](Oc2cccc3ccccc23)[C@H](O)[C@@H](O)[C@H]1O` [Compound 115af2] yielded an inhibition at 100 µM [3] of 45.9%.
`CC(=O)N[C@H]1[C@H](Oc2ccc3ncccc3c2)O[C@H](CO)[C@H](O)[C@@H]1O` [AM1184, N-((2S,3R,4R,5R,6R)-4,5-dihydroxy-6-(hydroxymethyl)-2-(quinolin-6-yloxy)tetrahydro-2H-pyran-3-yl)acetamide] showed an inhibition at 1 µM [1] of 7.56% and an inhibition at 1 µM [8] of 7.56%.
With `CC(=O)N[C@H]1[C@H](Oc2cccc3cccnc23)O[C@H](CO)[C@H](O)[C@@H]1O` [AM1176] the inhibition at 1 µM [1] was 21% and the inhibition at 1 µM [8] was 21%.
`CC(=O)N[C@H]1[C@H](Oc2cccc(C)c2-c2cccc(NS(C)(=O)=O)c2)O[C@H](CO)[C@H](O)[C@@H]1O` [AM2110] showed an IC50 [4] of 0.122 µM.
`CC(=O)N[C@H]1[C@H](Oc2ccccc2-c2cccc(S(C)(=O)=O)c2)O[C@H](CO)[C@H](O)[C@@H]1O` [AM2059, N-((2S,3R,4R,5R,6R)-4,5-dihydroxy-6-(hydroxymethyl)-2-((3′-(methylsulfonyl)-[1,1′-biphenyl]-2-yl)oxy)tetrahydro-2H-pyran-3-yl)acetamide] was tested, and the “inhibitory potency” value was “equal or slightly reduced potency”, the IC50 [7] was 0.7 µM and the inhibition at 0.1 µM [9] was 0.1%. The inhibition at 1 µM [1] was 23.3%, the inhibition at 0.1 µM [10] was 0.1% and the inhibition at 1 µM [8] was 23.3%.
Work on `O=[N+]([O-])c1ccccc1O[C@@H]1O[C@H](CO)[C@H](O)[C@H](O)[C@H]1O` [ONPG, o-nitrophenyl β-galactoside, reference compound] yielded an inhibition at 1 µM [1] of 14.2%, an inhibition at 10 µM [2] of 31.1% and an inhibition at 100 µM [3] of 93%. For the same compound, the “inhibition of FmlHLD binding to ds-BSM, in words” value was “more effectively than Gal, GalNAc, or TF”.
For `CC(=O)N[C@H]1[C@H](Oc2ccc3cccnc3c2)O[C@H](CO)[C@H](O)[C@@H]1O` [AM1180, N-((2S,3R,4R,5R,6R)-4,5-dihydroxy-6-(hydroxymethyl)-2-(quinolin-7-yloxy)tetrahydro-2H-pyran-3-yl)acetamide], the inhibition at 1 µM [1] was 15.4% and the inhibition at 1 µM [8] was 15.4%.
Work on `COc1ccc(C(=O)O)cc1-c1ccccc1O[C@@H]1O[C@H](CO)[C@H](O)[C@H](O)[C@H]1NC(C)=O` [AM2051] yielded an inhibition at 0.1 µM [9] of 0% and an inhibition at 1 µM [1] of 15.9%.
Compound `O=[N+]([O-])c1ccc(O[C@@H]2O[C@H](CO)[C@H](O)[C@H](O)[C@H]2O)cc1` [p-Nitrophenyl Gal, reference compound] has an inhibition at 10 µM [2] of 13.7% and an inhibition at 100 µM [3] of 78.1%.
`OC[C@H]1O[C@@H](Oc2ccccc2Cl)[C@H](O)[C@@H](O)[C@H]1O` [Compound 6β, 2-chlorophenyl β-D-galactopyranoside] was tested, and the “PI100 (percent inhibition)” value [5] was 90.5 ± 0.6%, the inhibition at 1 µM (read-out: PI1 (percent inhibition), galactoside at 1 μM, mean with standard error of the mean) was 8 ± 4% and the inhibition at 10 µM [11] was 20.7 ± 5.5%. It also gave an inhibition at 100 µM [6] of 90%.
For `OC[C@H]1O[C@@H](Oc2c[nH]c3ccccc23)[C@H](O)[C@@H](O)[C@H]1O` [Compound 16β], the “PI100 (percent inhibition)” value [5] was 21.7 ± 2.4% and the inhibition at 100 µM [6] was 22%.
Work on `CC(=O)N[C@H]1[C@H](Oc2cccc(F)c2-c2cccc(NS(C)(=O)=O)c2)O[C@H](CO)[C@H](O)[C@@H]1O` [AM2109] yielded an IC50 [4] of 0.151 µM.
`COc1cc(OC)cc(O[C@@H]2O[C@H](CO)[C@H](O)[C@H](O)[C@H]2O)c1` [Compound 7β, 3,5-dimethoxyphenyl β-D-galactopyranoside] was tested, and the “PI100 (percent inhibition)” value [5] was 76.4 ± 2.4%, the inhibition at 10 µM [11] was 11.7 ± 2.7% and the inhibition at 100 µM [6] was 76%.
For `CC(=O)N[C@H]1[C@@H](Oc2ccc([N+](=O)[O-])cc2)O[C@H](CO)[C@H](O)[C@@H]1O[C@@H]1O[C@H](CO)[C@H](O)[C@H](O)[C@H]1O` [Gal-b1-3-PNPGalNAc, reference compound], the “% Inhibition at [μM] [100]” value [12] was 15.28%.
`OC[C@H]1O[C@@H](Oc2ccc(-c3ccccc3)cc2)[C@H](O)[C@@H](O)[C@H]1O` [Compound 114bf2] showed an inhibition at 100 µM [3] of 30%.
With `OC[C@H]1O[C@@H](Oc2ccccc2-c2ccccc2)[C@H](O)[C@@H](O)[C@H]1O` [Compound 113f2] the inhibition at 1 µM [1] was 8.1%, the inhibition at 10 µM [2] was 31% and the inhibition at 100 µM [3] was 91.1%.
`CC(=O)N[C@@H]1[C@H](Oc2ccccc2-c2cccc(NC(=O)C(F)(F)F)c2)OC(CO)[C@H](O)[C@@H]1O` (stereo partly drawn) [Compound 3044, N-(2′-(((2S,3S,4R,5R)-3-acetamido-4,5-dihydroxy-6-(hydroxymethyl)tetrahydro-2H-pyran-2-yl)oxy)-[1,1′-biphenyl]-3-yl)-2,2,2-trifluoroacetamide] gave an IC50 [7] of 0.37 µM.
For `COC(=O)c1cccc(-c2ccccc2O[C@@H]2O[C@H](CO)[C@H](O)[C@H](O)[C@H]2O)c1` [Compound 116f], the inhibition at 1 µM [1] was 3.7%, the inhibition at 10 µM [2] was 22.4% and the inhibition at 100 µM [3] was 86.6%.
In the case of `Cc1cccc(O[C@@H]2O[C@H](CO)[C@H](O)[C@H](O)[C@H]2NC(=O)C(F)(F)F)c1-c1cccc(NS(C)(=O)=O)c1` [AM2129], the IC50 [4] is reported as 0.105 µM.
Compound `CC(=O)Nc1cccc(-c2ccccc2O[C@@H]2O[C@H](CO)[C@H](O)[C@H](O)[C@H]2NC(C)=O)c1` [AM2062, N-(2′-(((2S,3R,4R,5R,6R)-3-acetamido-4,5-dihydroxy-6-(hydroxymethyl)tetrahydro-2H-pyran-2-yl)oxy)-[1,1′-biphenyl]-3-yl)acetamide] has an IC50 [7] of 0.31 µM, an IC50 [4] of 0.623 µM and an inhibition at 0.1 µM [9] of 14.8%. The inhibition at 1 µM [1] was 67.9%, the inhibition at 0.1 µM [10] was 14.8% and the inhibition at 1 µM [8] was 67.9%.
Compound `Cc1cc(=O)oc2cc(O[C@@H]3O[C@H](CO)[C@H](O)[C@H](O)[C@H]3O)ccc12` [MUG, reference compound] has an inhibition at 1 µM [1] of 8.73%, an inhibition at 10 µM [2] of 19.7% and an inhibition at 100 µM [3] of 85.2%.
In the case of `O=c1c(O[C@@H]2O[C@H](CO)[C@H](O)[C@H](O)[C@H]2O)c(-c2cc(O)c(O)c(O)c2)oc2cc(O)cc(O)c12` [MyrG, reference compound], the inhibition at 100 µM [3] is reported as 10.8%.
With `CC(=O)N[C@H]1[C@H](Oc2ccccc2-c2cccc(NC(=O)C(F)(F)F)c2)O[C@H](CO)[C@H](O)[C@@H]1O` [AM2101] the IC50 [4] was 1.02 µM.
For `O=[N+]([O-])c1ccc(O[C@@H]2O[C@H](CO[C@@H]3O[C@H](CO)[C@H](O)[C@H](O)[C@H]3O)[C@H](O)[C@H](O)[C@H]2O)cc1` [Gal-b1-6-PNPG, reference compound], the “% Inhibition at [μM] [100]” value [12] was 19.41%.
With `CNC(=O)c1cccc(-c2ccccc2O[C@@H]2O[C@H](CO)[C@H](O)[C@H](O)[C@H]2NC(C)=O)c1` [AM1189, 2′-(((2S,3R,4R,5R,6R)-3-acetamido-4,5-dihydroxy-6-(hydroxymethyl)tetrahydro-2H-pyran-2-yl)oxy)-N-methyl-[1,1′-biphenyl]-3-carboxamide] the “inhibitory potency” value was “equal or slightly reduced potency”, the IC50 [7] was 3.36 µM and the inhibition at 1 µM [1] was 12.3%. For the same compound, the inhibition at 1 µM [8] was 12.3%.
Work on `Cc1ccccc1O[C@H]1O[C@H](CO)[C@H](O)[C@H](O)[C@H]1O` [Compound 2α, 2-Methylphenyl α/β-D-Galactopyranoside] yielded an inhibition at 100 µM [6] of 30 ± 5.4%.
For `CC(=O)N[C@H]1[C@H](Oc2cccc3c(C)ccnc23)O[C@H](CO)[C@H](O)[C@@H]1O` [AM1192, N-((2S,3R,4R,5R,6R)-4,5-dihydroxy-6-(hydroxymethyl)-2-((4-methylquinolin-8-yl)oxy)tetrahydro-2H-pyran-3-yl)acetamide], the inhibition at 1 µM [1] was 16.8% and the inhibition at 1 µM [8] was 16.8%.
In the case of `COc1cc(-c2[o+]c3cc(O)cc(O)c3cc2O[C@@H]2O[C@H](CO)[C@H](O)[C@H](O)[C@H]2O)ccc1O` [PeoG, reference compound], the inhibition at 100 µM [3] is reported as 3.64%.
For `O=C(O)C1OC(Oc2ccc([N+](=O)[O-])cc2)C(O)C(O)C1O` (stereo not drawn) [PNP Galacturonide, reference compound], the “% Inhibition at [μM] [100]” value [12] was −2.40%.
